Data from EP1278852B1, “ZSIG33-LIKE PEPTIDES” (ZymoGenetics, Inc., priority 2000, dated 2001).
No end group written: not given here.

The substances below were run on ob/ob mice (assay: In vivo glucose absorption (oral glucose challenge)). Conditions: given orally at 100 µg, 30 minutes prior to an oral glucose challenge; serum glucose.
Description: Eight female ob/ob mice, approximately 6 weeks old (Jackson Labs, Bar Harbor, ME) are adapted to a 4 hour daily feeding schedule for two weeks. After two weeks on the feeding schedule, the mice are give 100 µg of a peptide corresponding to the amino acid sequence as shown in SEQ ID NOs:4-6, 9-11, 14-17, 20-22, or 25-26 in 100 µl sterile 0.1% BSA by oral gavage, immediately after their eating period (post-prandially). Thirty minutes later, the mice are challenged orally with a 0.5 ml volume of 25% glucose. Retroorbital bleeds are done to determine serum glucose levels. Blood is drawn prior to peptide dosing, prior to oral glucose challenge, and at 1, 2, 4, and 20 hours following the glucose challenge.

Row | Substance | post-prandial glucose absorption
1 | zsig33-delta: peptide corresponding to residues 1 to 10 of SEQ ID NO:14; listing has 10-residue SEQ ID NO:20 (FNAPFDVGIK) | enhanced post-prandial glucose absorption
2 | zsig33-epsilon: peptide corresponding to residues 1 to 13 of SEQ ID NO:17; listing has 13-residue amidated SEQ ID NO:26 (LSGVQYQQHSQAL-NH2) | enhanced post-prandial glucose absorption
3 | zsig33-gamma: peptide corresponding to residues 1 to 17 of SEQ ID NO:10; listing has 17-residue SEQ ID NO:14 (FLQDILWEEAKEAPADK) | enhanced post-prandial glucose absorption
